Among the test systems are HCT-116 colon; HOP-92 NSCLC; MOLT-4 leukemia; NCI-H226 lung; NCI-H23 lung; NCI-H522 lung; NCI/ADR-RES ovarian; OVCAR-3 ovarian; OVCAR-5 ovarian; PC-3 prostate; RPMI-8226 leukemia; RXF 393 renal; SK-MEL-28 melanoma; SK-MEL-5 melanoma; SN12C renal; SNB-19 CNS; U251 CNS; T-47D breast.
What all share (experiment): DTP human tumour cell line panel, 48 h

Drawing on PubChem BioAssay (NCI), this text covers TGI for nine compounds.

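In this assay, cells in 96-well plates receive the compound at five concentrations for 48 hours. Endpoints are linearly interpolated between the surrounding concentrations. At the TGI there is no net growth.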

As usually defined, the TGI is the concentration at which net growth stops. A high value points to lower sensitivity of the cells.

For `NC(CCC(=O)NC(CSC(=O)N(O)c1ccc(Br)cc1)C(=O)NCC(=O)O)C(=O)O` (stereo not given), the TGI with HCT-116 colon, with HOP-92 NSCLC, with MOLT-4 leukemia, in the assay with NCI-H226 lung, with NCI-H23 lung and with NCI-H522 lung was over 100 µM in each case. For the same compound, the TGI was over 50 µM in the assay with NCI/ADR-RES ovarian; over 100 µM in the assay on OVCAR-3 ovarian; over 100 µM in the assay with OVCAR-5 ovarian; over 50 µM with PC-3 prostate; over 100 µM in the assay on RPMI-8226 leukemia; over 100 µM with RXF 393 renal. The TGI in the assay on SK-MEL-28 melanoma, in the assay with SK-MEL-5 melanoma, in the assay with SN12C renal, in the assay on SNB-19 CNS and in the assay on U251 CNS was over 100 µM in each case.
Regarding `CC1=NC(=Cc2ccc(O)cc2)C(=O)N1n1c(-c2ccccc2)nc2ccccc2c1=O`, the TGI in the assay on HCT-116 colon, with MOLT-4 leukemia, with NCI-H226 lung, with NCI-H23 lung, in the assay on NCI-H522 lung and in the assay on PC-3 prostate was over 100 µM throughout. Besides, the TGI with RPMI-8226 leukemia, with SK-MEL-28 melanoma, with SK-MEL-5 melanoma, in the assay with SN12C renal, in the assay with SNB-19 CNS and in the assay with T-47D breast was over 100 µM in each case.
`CNC(=S)N/N=C(C)\C(=N/NC(=S)NC)c1ccccc1`: the TGI with HCT-116 colon, with NCI-H226 lung, in the assay with NCI-H23 lung, in the assay on NCI-H522 lung, in the assay with NCI/ADR-RES ovarian and in the assay on OVCAR-3 ovarian was over 100 µM in each case. The TGI with OVCAR-5 ovarian, in the assay with PC-3 prostate, in the assay on RXF 393 renal, in the assay with SK-MEL-5 melanoma and in the assay with SNB-19 CNS was over 100 µM each time.
Consider `CCOC(=O)c1nc2c(Cl)c3ncccc3cc2[nH]c1=O`, for which the TGI is over 100 µM in the assay on HCT-116 colon; over 100 µM with HOP-92 NSCLC; 45.6 µM in the assay with MOLT-4 leukemia; over 100 µM with NCI-H226 lung; over 100 µM in the assay on NCI-H23 lung; over 100 µM in the assay on NCI-H522 lung. The TGI in the assay on NCI/ADR-RES ovarian, in the assay on OVCAR-3 ovarian, in the assay with OVCAR-5 ovarian, in the assay with PC-3 prostate, in the assay on RXF 393 renal and with SK-MEL-28 melanoma was over 100 µM in each case. Also, the values for the TGI in the assay on SK-MEL-5 melanoma, in the assay with SNB-19 CNS and with U251 CNS were 22.7 µM, over 100 µM and over 100 µM, respectively.
Regarding `CCN1c2nc3ccccc3nc2N(CC)c2nc3ccccc3nc21`, the TGI with HCT-116 colon, with MOLT-4 leukemia, in the assay with NCI-H226 lung, in the assay with NCI-H23 lung, in the assay on NCI-H522 lung and in the assay with NCI/ADR-RES ovarian was over 100 µM in each case. Moreover, the TGI in the assay on OVCAR-3 ovarian, in the assay on OVCAR-5 ovarian, with PC-3 prostate, in the assay on RPMI-8226 leukemia, in the assay on RXF 393 renal and with SK-MEL-28 melanoma was over 100 µM each time. The TGI in the assay on SK-MEL-5 melanoma, with SN12C renal, with SNB-19 CNS and in the assay with U251 CNS was over 100 µM each time.
In the case of `O=C(O)c1ccc(NNc2cc(=O)[nH]c(=O)[nH]2)cc1`, the TGI with HCT-116 colon, with MOLT-4 leukemia, in the assay with NCI-H226 lung, with NCI-H23 lung, with NCI/ADR-RES ovarian and in the assay with OVCAR-3 ovarian was over 100 µM each time. For the same compound, the TGI in the assay with OVCAR-5 ovarian was over 100 µM; in the assay with PC-3 prostate it was 83.7 µM; in the assay with RPMI-8226 leukemia, over 100 µM; in the assay with RXF 393 renal, over 100 µM; in the assay with SK-MEL-28 melanoma it was over 100 µM; in the assay with SK-MEL-5 melanoma, over 100 µM. Also, the TGI in the assay with SN12C renal, in the assay on SNB-19 CNS, in the assay on T-47D breast and in the assay with U251 CNS was over 100 µM in each case.
With `CC(=O)Oc1ccccc1-c1cc2ccccc2oc1=O`, the TGI in the assay on HCT-116 colon, in the assay on MOLT-4 leukemia, with NCI-H226 lung, in the assay with NCI-H23 lung, in the assay on NCI-H522 lung and in the assay with NCI/ADR-RES ovarian was over 100 µM in each case. Moreover, the TGI with OVCAR-3 ovarian, in the assay with OVCAR-5 ovarian, in the assay on PC-3 prostate, in the assay on RPMI-8226 leukemia, in the assay with SK-MEL-28 melanoma and with SN12C renal was over 100 µM throughout. The TGI with SNB-19 CNS and with T-47D breast was over 100 µM throughout.
On to `Cc1cccc2c1Oc1cc(Cl)ccc1C2NC(=O)CCN1CCOCC1` (stereo not given), for which the TGI with HCT-116 colon is over 100 µM; with HOP-92 NSCLC, 95.2 µM; with MOLT-4 leukemia, over 100 µM; with NCI-H23 lung, over 100 µM; in the assay with NCI-H522 lung it was over 100 µM; in the assay on NCI/ADR-RES ovarian it was over 100 µM. Besides, the TGI in the assay on OVCAR-3 ovarian, in the assay on OVCAR-5 ovarian, in the assay with PC-3 prostate, in the assay with SK-MEL-28 melanoma, in the assay with SK-MEL-5 melanoma and in the assay with SN12C renal was over 100 µM each time. The TGI in the assay with SNB-19 CNS, in the assay on T-47D breast and in the assay on U251 CNS was over 100 µM each time.
Regarding `CC1(C)c2ccccc2C(=O)C12CCC(=O)CC2`, the TGI in the assay with HCT-116 colon, with MOLT-4 leukemia, in the assay on NCI-H226 lung, in the assay on NCI-H23 lung, in the assay on NCI-H522 lung and in the assay on NCI/ADR-RES ovarian was over 100 µM throughout. Besides, the TGI is over 100 µM with OVCAR-5 ovarian; over 100 µM in the assay with PC-3 prostate; 96 µM in the assay with RXF 393 renal; over 100 µM in the assay with SK-MEL-28 melanoma; over 100 µM in the assay on SN12C renal; over 100 µM with SNB-19 CNS. The TGI in the assay on T-47D breast and in the assay with U251 CNS was over 100 µM in each case.
